{"source": "patent US4209426A", "about": "“Polypeptides related to somatostatin” (American Home Products Corporation, priority 1979, dated 1980)", "assay_type_in_all_cases": "in vivo", "key": {"[1]": {"test_system": "growth hormone (GH)", "test": "Arginine-stimulated growth hormone secretion in Nembutal-anesthetized rats, radioimmunoassay of blood", "settings": "for GH: albino male rats; for dose effective for reducing secretion of growth hormone, glucagon, and insulin levels: rats, subcutaneous, summary statement covering GH", "experimental": "(§1) The biological activity of the products of the preceding preparatory examples were determined by the following procedure:\n(§2) Albino male rats were administered Nembutal intraperitoneally at a dose of 50 milligrams per kilogram. Fifteen minutes later a subcutaneous injection of the test compound of physiological saline was administered. Ten minutes later 0.5 milliliters of arginine (300 milligrams per milliliter, pH 7.2) is injected into the heart. Five minutes after receipt of the arginine the rats are decapitated and blood is collected into trasylol-EDTA. An appropriate aliquot was assayed for growth hormone (GH), insulin and glucagon by radio immunoassay."}, "[2]": {"test_system": "insulin", "test": "Arginine-stimulated insulin secretion in Nembutal-anesthetized rats, radioimmunoassay of blood", "settings": "albino male rats", "experimental": "as §1, §2"}, "[3]": {"test_system": "glucagon", "test": "Arginine-stimulated glucagon secretion in Nembutal-anesthetized rats, radioimmunoassay of blood", "settings": "for GLUN: albino male rats; for dose with selectivity of action toward glucagon: rats, subcutaneous, summary statement", "experimental": "as §1, §2"}, "[4]": {"settings": "200 μg/kg subcutaneous, blood 15 min after compound (5 min after arginine), control 268 ± 46 (Example 2), 407 ± 62 (Example 3)"}, "[5]": {"settings": "200 μg/kg subcutaneous, blood 15 min after compound, control 323 ± 28 (Example 2), 271 ± 44 (Example 3)"}, "[6]": {"settings": "200 μg/kg subcutaneous, blood 15 min after compound, control 379 ± 109 (Example 2), 46 ± 72 (Example 3)"}}, "note": "Structures can show the parent of a compound that is named as a salt. Bridge positions count the residues as written; N and C are the ends. Square brackets hold non-standard residues; d marks the D form. Peptide text beside a SMILES is read from it.", "data": [{"molecule": "C[C@@H](O)[C@@H]1NC(=O)[C@H](Cc2ccccc2)NC(=O)[C@H]([C@@H](C)O)NC(=O)[C@H](CCCCN)NC(=O)[C@@H](Cc2c[nH]c3ccccc23)NC(=O)[C@H](Cc2ccccc2)NC(=O)[C@H](Cc2ccccc2)NC(=O)[C@H](Cc2ccc(O)cc2)NC(=O)[C@H](Cc2c[nH]cn2)NC(=O)[C@@H](N)CSSC[C@@H](C(=O)O)NC(=O)[C@H](CO)NC1=O", "note": "[Example 2, L-Cysteinyl-L-histidyl-L-tyrosyl-L-phenylalanyl-L-phenylalanyl-D-tryptophyl-L-lysyl-L-threonyl-L-phenylalanyl-L-threonyl-L-seryl-L-cysteine cyclic (1-12) disulfide diacetate salt] (H-CHYFF[dW]KTFTSC-OH; disulfide 1-12)", "values": [{"measurement": "GH", "setting": "[1]; [4]", "value": "68 ± 14", "unit": "ng/mL"}, {"measurement": "dose effective for reducing secretion of growth hormone, glucagon, and insulin levels", "setting": "[1]", "value": "≤ 50", "unit": "micrograms per kilogram"}, {"measurement": "INS", "setting": "[2]; [5]", "value": "254 ± 38", "unit": "μU/ml."}, {"measurement": "GLUN", "setting": "[3]; [6]", "value": "58 ± 24", "unit": "pg/mL"}, {"measurement": "dose with selectivity of action toward glucagon", "setting": "[3]", "value": "≤ 10", "unit": "micrograms per kilogram"}]}, {"molecule": "C[C@@H](O)[C@@H]1NC(=O)[C@H](Cc2ccccc2)NC(=O)[C@H]([C@@H](C)O)NC(=O)[C@H](CCCCN)NC(=O)[C@@H](Cc2c[nH]c3ccccc23)NC(=O)[C@H](Cc2ccccc2)NC(=O)[C@H](Cc2ccccc2)NC(=O)[C@H](Cc2ccc(O)cc2)NC(=O)[C@H](CCCNC(=N)N)NC(=O)[C@@H](N)CSSC[C@@H](C(=O)O)NC(=O)[C@H](CO)NC1=O", "note": "[Example 3, L-Cysteinyl-L-arginyl-L-tyrosyl-L-phenylalanyl-L-phenylalanyl-D-tryptophyl-L-lysyl-L-threonyl-L-phenylalanyl-L-threonyl-L-seryl-L-cysteine cyclic (1-12) disulfide triacetate salt] (H-CRYFF[dW]KTFTSC-OH; disulfide 1-12)", "values": [{"measurement": "GH", "setting": "[1]; 10 μg/kg subcutaneous, control 335 ± 33", "value": "207 ± 29", "unit": "ng/mL"}, {"measurement": "GH", "setting": "[1]; 50 μg/kg subcutaneous, control 202 ± 11", "value": "80 ± 16", "unit": "ng/mL"}, {"measurement": "GH", "setting": "[1]; [4]", "value": "101 ± 24", "unit": "ng/mL"}, {"measurement": "dose effective for reducing secretion of growth hormone, glucagon, and insulin levels", "setting": "[1]", "value": "≤ 50", "unit": "micrograms per kilogram"}, {"measurement": "INS", "setting": "[2]; 10 μg/kg subcutaneous, control 309 ± 31", "value": "278 ± 36", "unit": "μU/ml."}, {"measurement": "INS", "setting": "[2]; 50 μg/kg subcutaneous, control 238 ± 23", "value": "85 ±14", "unit": "μU/ml."}, {"measurement": "INS", "setting": "[2]; [5]", "value": "59 ± 16", "unit": "μU/ml."}, {"measurement": "GLUN", "setting": "[3]; 10 μg/kg subcutaneous, control 52 ± 10", "value": "12 ± 4", "unit": "pg/mL"}, {"measurement": "GLUN", "setting": "[3]; 50 μg/kg subcutaneous, control 86 ± 6", "value": "12 ± 4", "unit": "pg/mL"}, {"measurement": "GLUN", "setting": "[3]; [6]", "value": "13 ± 3", "unit": "pg/mL"}, {"measurement": "dose with selectivity of action toward glucagon", "setting": "[3]", "value": "≤ 10", "unit": "micrograms per kilogram"}]}]}
